Test results reported in US11690810B2, “Combination treatment of bacterial infection” (The Chinese University of Hong Kong, priority 2018, dated 2023).
≈ marks a conversion by molar mass, not a printed value. Where “and” joins values, the source holds several entries; their conditions need not be identical. Equal values may be shown once. Read-outs that look alike come from different tables or passages of the source.

What was measured:
[1] = tested on: HA MRSA W240; experiment: MIC and checkerboard (FIC) assay; conditions: for FIC / MIC combine: ECG with Kur
[2] = tested on: S. aureus ATCC25923 (methicillin sensitive); experiment: MIC and checkerboard (FIC) assay
[3] = tested on: clinical fusidic acid resistant MRSA strain 96591; experiment: MIC and checkerboard (FIC) assay; type: cell-based, Staphylococcus aureus; conditions: for FIC / MIC combine: 96591
[4] = tested on: HA MRSA W234; experiment: MIC and checkerboard (FIC) assay; conditions: for FIC / MIC combine: ECG with Kur
[5] = tested on: HA MRSA W233; experiment: MIC and checkerboard (FIC) assay
[6] = tested on: CA MRSA W46; experiment: MIC and checkerboard (FIC) assay; conditions: for MIC alone / FIC / MIC combine: W46
[7] = tested on: S. aureus SA-ANT4′ (ANT4), resistant to fusidic acid; experiment: MIC and checkerboard (FIC) assay; conditions: for MIC alone: ANT4 (fusidic acid resistant); for FIC / MIC combine: ANT4
[8] = tested on: cytokines production of human macrophages stimulated with PGN or SEB; type: cell-based
[9] = tested on: human peripheral blood mononuclear cells (PBMC); experiment: XTT cytotoxicity testing; type: cell-based; conditions: 2-64 μg/ml, vs drug free control
Procedure: (§1) The plates were maintained in a 37° C. incubator.
The cytotoxicity of kuraridin and its analogues were determined by the sodium 3′-[1-(phenylaminocarbonyl)-3,4-tetrazolium]-bis (4-methoxy-6-nitro) benzene sulfonic acid hydrate (XTT) assay.
Serial dilutions of the compounds ranging 2-64 μg/ml were incubated with PBMCs at 37° C. for 72 hrs.

[10] = tested on: internalization of MRSA strain JE-2 by HaCat keratinocytes; experiment: Internalization of S. aureus by HaCaT keratinocytes; type: cell-based, Staphylococcus aureus
[11] = tested on: adherence of MRSA strain JE-2 to HaCat keratinocytes; experiment: Bacterial adherence to HaCaT keratinocytes; type: cell-based, Staphylococcus aureus
[12] = tested on: S. aureus SA-1199B (NorA efflux pump overexpressed); experiment: MIC and checkerboard (FIC) assay; conditions: for FIC / MIC combine: 1199B; for MIC: read-out: MIC alone, 1199B
[13] = tested on: S. aureus ATCC25923 (methicillin sensitive); conditions: ATCC 25293; ECG with Kur
[14] = tested on: NorA overexpressed S. aureus; conditions: ECG at 20 μg/ml; norfloxacin-resistant S. aureus overexpressing NorA (16); cited from earlier work
[15] = tested on: Panton-Valentine leukocidin positive CA-MRSA strain ST30; type: in vivo, Balb/c mice; conditions: ST30; used alone at 60 and 120 mg/kg
[16] = tested on: cytokines production of human PBMC stimulated with PGN or SEB; type: cell-based
[17] = tested on: panel of laboratory MRSA strains; experiment: MIC and combination tests, panel of laboratory strains
[18] = Solubility; conditions: saline or isotonic
[19] = tested on: HA MRSA W231; conditions: ECG+Kur+Van
[20] = tested on: Human Umbilical Vein Endothelial Cells (HUVEC); experiment: XTT cytotoxicity testing; conditions: 2-64 μg/ml, vs drug free control
[21] = tested on: clinical MRSA ST239; experiment: Mouse pneumonia model, ST239 (neutropenic mice); type: in vivo, Balb/c mice; conditions: ST239; 48 h; 1 also died in control
[22] = tested on: adherence of MRSA strain JE-2 to fibrinogen; experiment: Fibrinogen-binding adherence assay (crystal violet); type: cell-based, Staphylococcus aureus; conditions: varying concentrations
[23] = tested on: S. aureus SA-RN4220-pUL5054 (RN4220); experiment: MIC and checkerboard (FIC) assay
[24] = tested on: Human Mammary Epithelial Cell (HMEC); experiment: XTT cytotoxicity testing; type: cell-based; conditions: 2-64 μg/ml, vs drug free control
Procedure: as §1

[25] = Staphylococcus aureus, MRSA, read-out: MIC alone
[26] = Staphylococcus aureus, read-out: MIC 99.9
[27] = Staphylococcus aureus, read-out: MIC alone

Q: For `C=C(C)[C@H](CC=C(C)C)Cc1c(O)cc(OC)c(C(=O)/C=C/c2ccc(O)cc2O)c1O` [Kuraridin], which MIC alone ([1]; W240) is on record?
A: Its MIC alone is 8 µg/mL.

Q: What about the FIC ([1]; W240) of the same compound?
A: The FIC was 0.5.

Q: What about the MIC combine ([1]; W240) of the same compound?
A: Its MIC combine is 4 µg/mL.

Q: And the MIC alone ([2]; ATCC 25293)?
A: Its MIC alone is 8 µg/mL.

Q: What about the FIC ([2]; ATCC 25293, ECG with Kur) of the same compound?
A: Its FIC is 0.5.

Q: What about the MIC combine ([2]; ATCC 25293, ECG with Kur) of the same compound?
A: Its MIC combine is 4 µg/mL.

Q: And the MIC alone ([3]; 96591 (fusidic acid resistant), listed as Kur)?
A: The MIC alone was 4 µg/mL and 8 µg/mL.

Q: What about the FIC ([3]; ECG+Kur+Fus) of the same compound?
A: The FIC was 0.5.

Q: And the MIC combine ([3]; ECG+Kur+Fus)?
A: Its MIC combine is 2 µg/mL.

Q: What about the FIC ([3]; ECG+Kur, no Fus) of the same compound?
A: Its FIC is 0.5.

Q: And the MIC combine ([3]; ECG+Kur, no Fus)?
A: The MIC combine was 4 µg/mL.

Q: What about the MIC alone ([4]; W234) of the same compound?
A: Its MIC alone is 8 µg/mL.

Q: And the FIC ([4]; W234)?
A: Its FIC is 0.5.

Q: What about the MIC combine ([4]; W234) of the same compound?
A: The MIC combine was 4 µg/mL.

Q: What about the MIC alone ([5]; W233) of the same compound?
A: Its MIC alone is 4 µg/mL.

Q: And the MIC alone ([5]; W233 (gentamicin resistant))?
A: The MIC alone was 8 µg/mL.

Q: What about the FIC ([5]; W233, ECG with Kur) of the same compound?
A: Its FIC is 0.5.

Q: And the MIC combine ([5]; W233, ECG with Kur)?
A: Its MIC combine is 2 µg/mL.

Q: And the FIC ([5]; W233, ECG+Kur+Gen)?
A: Its FIC is 0.5.

Q: And the MIC combine ([5]; W233, ECG+Kur+Gen)?
A: Its MIC combine is 4 µg/mL.

Q: And the FIC ([5]; W233, ECG+Kur+Van)?
A: The FIC was 0.25.

Q: What about the MIC combine ([5]; W233, ECG+Kur+Van) of the same compound?
A: The MIC combine was 2 µg/mL.

Q: What about the FIC ([5]; W233, ECG+Kur, no Gen) of the same compound?
A: The FIC was 1.

Q: What about the MIC combine ([5]; W233, ECG+Kur, no Gen) of the same compound?
A: Its MIC combine is 8 µg/mL.

Q: And the MIC alone ([5]; W233, Table 5)?
A: The MIC alone was 8 µg/mL.

Q: What about the MIC alone [6] of the same compound?
A: Its MIC alone is 8 µg/mL.

Q: And the FIC ([6]; ECG with Kur)?
A: The FIC was 0.5.

Q: And the MIC combine ([6]; ECG with Kur)?
A: Its MIC combine is 4 µg/mL.

Q: And the FIC ([6]; ECG+Kur+Van)?
A: Its FIC is 0.5.

Q: What about the MIC combine ([6]; ECG+Kur+Van) of the same compound?
A: Its MIC combine is 4 µg/mL.

Q: What about the MIC alone ([6]; Table 5) of the same compound?
A: The MIC alone was 8 µg/mL.

Q: What about the MIC alone [7] of the same compound?
A: Its MIC alone is 8 µg/mL.

Q: What about the FIC ([7]; ECG+Kur+Fus) of the same compound?
A: The FIC was 0.25.

Q: What about the MIC combine ([7]; ECG+Kur+Fus) of the same compound?
A: Its MIC combine is 2 µg/mL.

Q: What about the FIC ([7]; ECG+Kur, no Fus) of the same compound?
A: Its FIC is 0.25.

Q: What about the MIC combine ([7]; ECG+Kur, no Fus) of the same compound?
A: Its MIC combine is 2 µg/mL.

Q: What does the source list for `O=C(O[C@@H]1Cc2c(O)cc(O)cc2O[C@@H]1c1ccc(O)c(O)c1)c1cc(O)c(O)c(O)c1` [ECG, epicatechin gallate]?
A: MIC [1, 25]: 512 µg/mL; FIC ([1]; W240): 0.008; MIC combine ([1]; W240): 4 µg/mL; IL-12 production [8]: could suppress only IL-12; MIC ([2]; Staphylococcus aureus, ATCC25293 / ATCC25923, read-out: MIC alone): 512 µg/mL; MIC90 ([2]; Staphylococcus aureus, ATCC25923): 128 µg/mL; MIC99 ([2]; Staphylococcus aureus, ATCC25923, read-out: MIC 99.9): > 512 µg/mL; Cellular toxicity (XTT assay) [9]: not toxic; percentage of internalized bacteria by HaCaT cells ([10]; ECG 4 μg/ml): 62.2±2.7%; percentage of internalized bacteria by HaCaT cells ([10]; ECG 8 μg/ml): 62.8±10.5%; percentage of internalized bacteria by HaCaT cells ([10]; ECG 16 μg/ml): 53.7±6.3%; percentage of internalized bacteria by HaCaT cells ([10]; ECG 32 μg/ml): 42.2±8.9%; percentage of internalized bacteria by HaCaT cells ([10]; ECG 64 μg/ml): 34.7±4.5%; decrease in the adherence of the WT strain to HaCaT cells ([11]; 64 μg/ml of ECG): 1.4 fold; percentage of adherence of the bacteria to HaCaT cells ([11]; ECG 4 μg/ml): 73.0±4.1%; percentage of adherence of the bacteria to HaCaT cells ([11]; ECG 8 μg/ml): 75.4±11.0%; percentage of adherence of the bacteria to HaCaT cells ([11]; ECG 16 μg/ml): 76.4±7.0%; percentage of adherence of the bacteria to HaCaT cells ([11]; ECG 32 μg/ml): 58.8±8.5%; percentage of adherence of the bacteria to HaCaT cells ([11]; ECG 64 μg/ml): 52±6.5%; FIC ([12]; Baicalein with ECG): 0.25; MIC combine ([12]; Baicalein with ECG): 8 µg/mL; FIC ([12]; Kuraridin with ECG): 0.06; MIC combine ([12]; Kuraridin with ECG): 32 µg/mL; MIC90 ([12]; Staphylococcus aureus): 8 µg/mL; MIC99 [12, 26]: > 512 µg/mL; MIC ([12]; Staphylococcus aureus, Baicalein and ECG section): 32 µg/mL; MIC ([12]; Staphylococcus aureus, Kuraridin and ECG section): 512 µg/mL; FIC [13]: 0.008; MIC combine [13]: 4 µg/mL; potentiation of the activity of norfloxacin [14]: four-fold potentiation; FIC ([3]; ECG+Kur+Fus): 0.002; MIC combine ([3]; ECG+Kur+Fus): 0.25 µg/mL; FIC ([3]; ECG+Kur, no Fus): 0.003; MIC combine ([3]; ECG+Kur, no Fus): 16 µg/mL; MIC [3, 25]: 512 µg/mL; log CFU counts and survival rates [15]: could not reduce the log CFU counts or improve the survival rates; IL-10 and IL-12 production [16]: mildly suppressed; TNF-α production [16]: no significant effects; MIC90 ([17]; Staphylococcus aureus, MRSA): 4 to 16 µg/mL; concentration for 99.9% inhibition ([17]; panel of laboratory strains): > 512 µg/mL; solubility [18]: 20 mg/mL (≈ 45.2 mM); MIC [4, 25]: 512 µg/mL; FIC ([4]; W234): 0.002; MIC combine ([4]; W234): 1 µg/mL; FIC [19]: 0.0004; MIC combine [19]: 0.25 µg/mL; Cellular toxicity (XTT assay) [20]: not toxic; mice died [21]: 1 mouse; MIC [5, 25]: 512 µg/mL; MIC alone ([5]; W233 (gentamicin resistant)): 512 µg/mL; FIC ([5]; W233, ECG with Kur): 0.004; MIC combine ([5]; W233, ECG with Kur): 2 µg/mL; FIC ([5]; W233, ECG+Kur+Gen): 0.0005; MIC combine ([5]; W233, ECG+Kur+Gen): 0.25 µg/mL; FIC ([5]; W233, ECG+Kur+Van): 0.03; MIC combine ([5]; W233, ECG+Kur+Van): 8 µg/mL; FIC ([5]; W233, ECG+Kur, no Gen): 0.03; MIC combine ([5]; W233, ECG+Kur, no Gen): 16 µg/mL; MIC alone ([5]; W233, Table 5): 512 µg/mL; MIC [6, 25]: 512 µg/mL; FIC ([6]; ECG with Kur): 0.015; MIC combine ([6]; ECG with Kur): 8 µg/mL; FIC ([6]; ECG+Kur+Van): 0.002; MIC combine ([6]; ECG+Kur+Van): 1 µg/mL; MIC alone ([6]; Table 5): 512 µg/mL; fibrinogen-binding adherence [22]: dose-dependent reduction of adherence; FIC ([23]; RN4220, Kuraridin with ECG): 0.01; MIC combine ([23]; RN4220, Kuraridin with ECG): 8 µg/mL; MIC90 ([23]; Staphylococcus aureus): 8 µg/mL; MIC99 [23, 26]: > 512 µg/mL; MIC [23, 27]: 512 µg/mL; Cellular toxicity (XTT assay) [24]: not toxic; MIC alone [7]: 512 µg/mL; FIC ([7]; ECG+Kur+Fus): 0.0007; MIC combine ([7]; ECG+Kur+Fus): 4 µg/mL; FIC ([7]; ECG+Kur, no Fus): 0.03; MIC combine ([7]; ECG+Kur, no Fus): 16 µg/mL; FIC ([7]; Kuraridin with ECG): 0.03; MIC combine ([7]; Kuraridin with ECG): 16 µg/mL; MIC90 ([7]; Staphylococcus aureus): 8 µg/mL; MIC99 [7, 26]: > 512 µg/mL; MIC [7, 27]: 512 µg/mL
